US5132111A (priority 1990, dated 1992)
Non-standard residues stand in square brackets, D forms with d. Residues, ends and D or L forms follow the SMILES beside them. hArg = N=C(N)NCCCC[C@H](N)C(=O)O; Nle = CCCC[C@H](N)C(=O)O

Test system: cultured rat pituitary cells
Type: cell-based

| Molecule | secretion of ACTH | secretion of β-endorphin (β-END-LI) |
| --- | --- | --- |
| H-SQEPPISLDLTFHLLREMLEMARAEQEAEQAALNRLLLEEA-NH2 [AAHC] | biologically potent to stimulate the secretion | biologically potent to stimulate the secretion |
| CC[C@H](C)[C@H](NC(=O)[C@@H]1CCCN1C(=O)[C@@H]1CCCN1)C(=O)N[C@@H](CO)C(=O)N[C@@H](CC(C)C)C(=O)N[C@@H](CC(=O)O)C(=O)N[C@@H](CC(C)C)C(=O)N[C@H](C(=O)N[C@@H](CC(C)C)C(=O)N[C@@H](Cc1c[nH]cn1)C(=O)N[C@@H](CC(C)C)C(=O)N[C@@H](CC(C)C)C(=O)N[C@@H](CCCNC(=N)N)C(=O)N[C@@H](CCC(=O)O)C(=O)N[C@@H](CCSC)C(=O)N[C@@H](CC(C)C)C(=O)N[C@@H](CCC(=O)O)C(=O)N[C@@H](CCSC)C(=O)N[C@@H](CCC(=O)O)C(=O)N[C@@H](CCCCNC(=N)N)C(=O)N[C@@H](C)C(=O)N[C@@H](CCC(=O)O)C(=O)N[C@@H](CCC(N)=O)C(=O)N[C@@H](CCC(=O)O)C(=O)N[C@@H](C)C(=O)N[C@@H](CCC(=O)O)C(=O)N[C@@H](CCC(N)=O)C(=O)N[C@@H](C)C(=O)N[C@@H](C)C(=O)N[C@@H](CC(C)C)C(=O)N[C@@H](CC(N)=O)C(=O)N[C@@H](CCCNC(=N)N)C(=O)N[C@@H](CCCCNC(=N)N)C(=O)N[C@@H](CC(C)C)C(=O)N[C@@H](CC(C)C)C(=O)N[C@@H](CCC(=O)O)C(=O)N[C@@H](CCC(=O)O)C(=O)N[C@@H](C)C(N)=O)[C@@H](C)O [[Glu^22, Leu^12, Har^23,36]-AHC(4-41)] (H-PPISLDLTLHLLREMLEME[hArg]AEQEAEQAALNR[hArg]LLEEA-NH2) | stimulates | stimulates |
| CCCC[C@H](NC(=O)[C@H](CCC(=O)O)NC(=O)[C@H](CC(C)C)NC(=O)[C@H](CCCC)NC(=O)[C@H](CCC(=O)O)NC(=O)[C@H](CCCNC(=N)N)NC(=O)[C@H](CC(C)C)NC(=O)[C@H](CC(C)C)NC(=O)[C@H](Cc1c[nH]cn1)NC(=O)[C@H](Cc1ccccc1)NC(=O)[C@@H](NC(=O)[C@H](CC(C)C)NC(=O)[C@H](CC(=O)O)NC(=O)[C@H](CC(C)C)NC(=O)[C@H](CO)NC(=O)[C@@H](NC(=O)[C@@H]1CCCN1C(=O)[C@@H]1CCCN1C(=O)[C@H](N)Cc1ccc(O)cc1)[C@@H](C)CC)[C@@H](C)O)C(=O)N[C@@H](C)C(=O)N[C@@H](CCCNC(=N)N)C(=O)N[C@@H](C)C(=O)N[C@@H](CCC(=O)O)C(=O)N[C@@H](CCC(N)=O)C(=O)N[C@@H](CCC(=O)O)C(=O)N[C@@H](C)C(=O)N[C@@H](CCC(=O)O)C(=O)N[C@@H](CCC(N)=O)C(=O)N[C@@H](C)C(=O)N[C@@H](C)C(=O)N[C@@H](CC(C)C)C(=O)N[C@@H](CC(N)=O)C(=O)N[C@@H](CCCNC(=N)N)C(=O)N[C@@H](CC(C)C)C(=O)N[C@@H](CC(C)C)C(=O)N[C@@H](CC(C)C)C(=O)N[C@@H](CCC(=O)O)C(=O)N[C@@H](CCC(=O)O)C(=O)N[C@@H](C)C(N)=O [[D-Tyr^3, Nle^18,21]-AAHC(3-41)] (H-[dY]PPISLDLTFHLLRE[Nle]LE[Nle]ARAEQEAEQAALNRLLLEEA-NH2) | stimulates | stimulates |
| H-SQE[dP]PISLDLTFHLLRE[Nle]LE[Nle]ARAEQEAEQAALNRLLLEEA-NH2 [[D-Pro^4, Nle^18,21]-AAHC] | stimulates | stimulates |
| CCCC[C@H](NC(=O)[C@@H](NC(=O)[C@H](CC(C)C)NC(=O)[C@H](CC(=O)O)NC(=O)[C@H](CC(C)C)NC(=O)[C@H](CO)NC(=O)[C@@H](NC(=O)[C@@H]1CCCN1C(=O)[C@@H]1CCCN1C(=O)[C@@H](N)CCC(=O)O)[C@@H](C)CC)[C@@H](C)O)C(=O)N[C@@H](Cc1c[nH]cn1)C(=O)N[C@@H](CC(C)C)C(=O)N[C@@H](CC(C)C)C(=O)N[C@@H](CCCNC(=N)N)C(=O)N[C@@H](CCC(=O)O)C(=O)N[C@H](C(=O)N[C@@H](CC(C)C)C(=O)N[C@@H](CCC(=O)O)C(=O)N[C@@H](CCSC)C(=O)N[C@@H](C)C(=O)N[C@@H](CCCNC(=N)N)C(=O)N[C@@H](C)C(=O)N[C@@H](CCC(=O)O)C(=O)N[C@@H](CCC(N)=O)C(=O)N[C@@H](CC(C)C)C(=O)N[C@@H](C)C(=O)N[C@@H](CCC(=O)O)C(=O)N[C@@H](CCC(N)=O)C(=O)N[C@@H](C)C(=O)N[C@@H](Cc1c[nH]cn1)C(=O)N[C@@H](CO)C(=O)N[C@@H](CC(N)=O)C(=O)N[C@@H](CCCNC(=N)N)C(=O)N[C@@H](CCCNC(=N)N)C(=O)N[C@@H](CC(C)C)C(=O)N[C@@H](CCSC)C(=O)N[C@@H](CCC(=O)O)C(=O)N[C@H](C(=O)N[C@H](C(N)=O)[C@@H](C)CC)[C@@H](C)CC)C(C)C (H-EPPISLDLT[Nle]HLLREVLEMARAEQLAEQAHSNRRLMEII-NH2) | stimulates | stimulates |
| H-VSEPPISLDLTFHLLREVLEMARAEQLAQQAHSNRRLMEEI-NH2 [[Val^1, Ser^2, Arg^36, Glu^40]-rCRF] | stimulates | stimulates |
| CCCC[C@H](NC(=O)[C@H](CCC(=O)O)NC(=O)[C@H](CC(C)C)NC(=O)[C@H](CCCC)NC(=O)[C@H](CCC(=O)O)NC(=O)[C@H](CCCNC(=N)N)NC(=O)[C@H](CC(C)C)NC(=O)[C@H](CC(C)C)NC(=O)[C@H](Cc1c[nH]cn1)NC(=O)[C@H](Cc1ccccc1)NC(=O)[C@@H](NC(=O)[C@H](CC(C)C)NC(=O)[C@H](CC(=O)O)NC(=O)[C@H](CC(C)C)NC(=O)[C@H](CO)NC(=O)[C@@H](NC(=O)[C@@H]1CCCN1C(=O)[C@H]1CCCN1)[C@@H](C)CC)[C@@H](C)O)C(=O)N[C@@H](C)C(=O)N[C@@H](CCCNC(=N)N)C(=O)N[C@@H](C)C(=O)N[C@@H](CCC(=O)O)C(=O)N[C@@H](CCC(N)=O)C(=O)N[C@@H](CCC(=O)O)C(=O)N[C@@H](C)C(=O)N[C@@H](CCC(=O)O)C(=O)N[C@@H](CCC(N)=O)C(=O)N[C@@H](C)C(=O)N[C@@H](C)C(=O)N[C@@H](CC(C)C)C(=O)N[C@@H](CC(N)=O)C(=O)N[C@@H](CCCNC(=N)N)C(=O)N[C@@H](CC(C)C)C(=O)N[C@@H](CC(C)C)C(=O)N[C@@H](CC(C)C)C(=O)N[C@@H](CCC(=O)O)C(=O)N[C@@H](CCC(=O)O)C(=O)N[C@@H](C)C(N)=O [[D-Pro^4, Nle^18,21]-AAHC(4-41)] (H-[dP]PISLDLTFHLLRE[Nle]LE[Nle]ARAEQEAEQAALNRLLLEEA-NH2) | stimulates | stimulates |
| H-SEEPPISLELTFHLLREVLE[Nle]ARAEQLAEQAHLNRRL[Nle]EII-NH2 | stimulates | stimulates |
| H-SQEPPISLDLTFHLLREVLE[Nle]TRADQLAQQAHSNRRLLDIA-NH2 [[Nle^21, Arg^23,36]-oCRF] | stimulates | stimulates |
| CCCC[C@H](NC(=O)[C@H](CCC(=O)O)NC(=O)[C@H](CCCNC(=N)N)NC(=O)[C@H](CC(C)C)NC(=O)[C@H](CC(C)C)NC(=O)[C@H](Cc1c[nH]cn1)NC(=O)[C@H](Cc1ccccc1)NC(=O)[C@@H](NC(=O)[C@H](CC(C)C)NC(=O)[C@H](CC(=O)O)NC(=O)[C@H](CC(C)C)NC(=O)[C@H](CO)NC(=O)[C@@H](NC(=O)[C@@H]1CCCN1C(=O)[C@@H]1CCCN1C(=O)[C@H](CCC(=O)O)NC(=O)[C@@H](N)CCC(N)=O)[C@@H](C)CC)[C@@H](C)O)C(=O)N[C@@H](CC(C)C)C(=O)N[C@@H](CCC(=O)O)C(=O)N[C@@H](CCSC)C(=O)N[C@H](C(=O)N[C@@H](CCCNC(=N)N)C(=O)N[C@@H](C)C(=O)N[C@@H](CC(=O)O)C(=O)N[C@@H](CCC(N)=O)C(=O)N[C@@H](CC(C)C)C(=O)N[C@@H](C)C(=O)N[C@@H](CCC(N)=O)C(=O)N[C@@H](CCC(N)=O)C(=O)N[C@@H](C)C(=O)N[C@@H](Cc1c[nH]cn1)C(=O)N[C@@H](CO)C(=O)N[C@@H](CC(N)=O)C(=O)N[C@@H](CCCNC(=N)N)C(=O)N[C@@H](CCCNC(=N)N)C(=O)N[C@@H](Cc1ccc(O)cc1)C(=O)N[C@@H](CC(C)C)C(=O)N[C@@H](CC(=O)O)C(=O)N[C@@H](CCC(=O)O)C(=O)N[C@@H](C)C(N)=O)[C@@H](C)O (H-QEPPISLDLTFHLLRE[Nle]LEMTRADQLAQQAHSNRRYLDEA-NH2) | stimulates | stimulates |
| H-SEEPPISLDLTLELLREMLEME[hArg]AEREAEQAALNRLLLEEA-NH2 | stimulates | stimulates |
| H-SQEPPISLDLTFHLLREVLEMTRADQLAQQAHSNRRLLDIA-NH2 [[Arg^23,36]-oCRF] | stimulates | stimulates |
| H-SEEPPIS[Nle]DLSFHLLREVLEMARAEQLAQQAHLNRRLMEEI-NH2 | stimulates | stimulates |
| H-PPISLDLTFHLLREVLEMARAEQLAEQAHSNRRYMEEI-NH2 | stimulates | stimulates |
| H-SQEPPISLDLTFHLLRE[Nle]LE[Nle]ARAEQEAEQAALNRLLLEEA-NH2 [[Nle^18, 21]-AAHC] | stimulates | stimulates |
| H-SQEPPISLDLTFHLLREVLEMARAEQLAEQAHSNRRLLEII-NH2 [[Gln^2, Glu^29, Leu^38]-rCRF] | stimulates | stimulates |
| CCCC[C@H](NC(=O)[C@H](CCC(=O)O)NC(=O)[C@H](CC(C)C)NC(=O)[C@H](CCCC)NC(=O)[C@H](CCC(=O)O)NC(=O)[C@H](CCCNC(=N)N)NC(=O)[C@H](CC(C)C)NC(=O)[C@H](CC(C)C)NC(=O)[C@H](Cc1c[nH]cn1)NC(=O)[C@H](Cc1ccccc1)NC(=O)[C@@H](NC(=O)[C@H](CC(C)C)NC(=O)[C@H](CC(=O)O)NC(=O)[C@H](CC(C)C)NC(=O)[C@H](CO)NC(=O)[C@@H](NC(=O)[C@@H]1CCCN1)[C@@H](C)CC)[C@@H](C)O)C(=O)N[C@@H](C)C(=O)N[C@@H](CCCNC(=N)N)C(=O)N[C@@H](C)C(=O)N[C@@H](CCC(=O)O)C(=O)N[C@@H](CCC(N)=O)C(=O)N[C@@H](CCC(=O)O)C(=O)N[C@@H](C)C(=O)N[C@@H](CCC(=O)O)C(=O)N[C@@H](CCC(N)=O)C(=O)N[C@@H](C)C(=O)N[C@@H](C)C(=O)N[C@@H](CC(C)C)C(=O)N[C@@H](CC(N)=O)C(=O)N[C@@H](CCCNC(=N)N)C(=O)N[C@@H](CC(C)C)C(=O)N[C@@H](CC(C)C)C(=O)N[C@@H](CC(C)C)C(=O)N[C@@H](CCC(=O)O)C(=O)N[C@@H](CCC(=O)O)C(=O)N[C@@H](C)C(N)=O [[Nle^18,21, ]-AAHC(5-41)] (H-PISLDLTFHLLRE[Nle]LE[Nle]ARAEQEAEQAALNRLLLEEA-NH2) | stimulates | stimulates |
